Measured values taken from patent publication US8716296B2 (Ingenium Pharmaceuticals GmbH, priority 2007, dated 2014).

What was measured:
LPS induced mice = test: LPS in vivo assay, model of cytokine repression in vivo; design: species or system mice (strain C3HeB/FeJ); conditions: 10 or 30 mg/kg i.p. 30 min prior to LPS, blood 90 min after LPS, ELISA, versus vehicle
Protocol: For the LPS induced model of septic shock, mice receive an intraperitoneal (i.p.) injection of 30 μg bacterial Lipopolysaccharide (LPS; L2630 SIGMA) in saline. Said LPS-mediated initiation of the inflammatory signalling cascade results in increasing blood serum concentrations of cytokines such as e.g. TNFα, IL-6 and IL1β. Blood can be taken from these animals at defined time points. Thereafter, serum will be separated and the samples can be stored at −80° C. until cytokine concentrations are measured using commercial ELISA assays. (A L Moreira et al., Braz J Med Biol Res 1997; 30:1199-1207).
Wildtype mice (strain C3HeB/FeJ) (age, sex and weight matched) were injected with 30 μg LPS (SIGMA) intraperitoneally. 90 minutes after LPS administration these animals were anaesthetized with 0.1 m1/10 g bodyweight Ketamine-Rompun (50/20 mg/ml), and blood for serum preparation was taken via cardiac puncture.
Pharmacological treatment groups (n=4) of LPS mice received intraperitoneal (i. p.) injections of CDK-inhibiting compounds or the vehicle (negative control), respectively. In particular, compounds #1A and 16A were administered.
10 or 30 mg/kg (compound per bodyweight) of a CDK inhibitor, dissolved in 20% DMSO, 5% Tween 80, 10% Tris 1M pH8, 20% PEG400, 45% PBS was administered as a single dosage 30 min prior to LPS stimulation. Vehicle control was administered in the same manner.
90 minutes (min) after LPS stimulation, blood samples were taken from the mice. Previously, the 90 min time point had been identified as the peak of TNF alpha expression in this animal model by a time course experiment.
Blood samples (˜500 μl/animal) from the LPS animals were incubated on wet ice for 30 min after cardiac puncture. Afterwards the samples were centrifuged for 15 min at 13.000 rpm. Serum was separated from the clot and stored frozen at −80° C.
Serum concentrations of TNF alpha and IL6 within the samples were measured by using commercial ELISA Kits (Natutec) according to the manufacturers instructions.

[1] = test system: LPS induced THP-1 macrophages; test: In vitro THP-1 assay, model of cytokine inhibition; type: cell-based, human; conditions: differentiated THP-1 cells, 60 min pre-incubation, LPS 4-48 h, ELISA, versus vehicle (DMSO)
Protocol: The human THP-1 cell line can be utilized as an in vitro model of cytokine expression as mediated by Lipopolysaccharide (LPS) or Tumor Necrosis Factorα [TNFα].
Monocytic THP-1 cells (ATCC; TIB-202) can be differentiated into macrophage-like cells expressing pro-inflammatory cytokines like TNFα, IL6 and IL1β upon induction with LPS or by TNFα (autocrine induction) itself.
THP-1 cells are grown in modified RPMI-1640 medium (ATCC, Cat. No. 30-2001) supplemented with 10% FCS and 1% Pen/Strep. For cytokine inhibition assays, cells are seeded at a density of 5×10^5 cells/ml into 6-well plates in standard growth medium supplemented with 100 ng/ml PMA (Sigma, P1585) to induce differentiation into macrophage-like cells. After 24 hours, the medium is replaced with standard growth medium (without PMA) and the cells are incubated for another 48 hours to complete differentiation.
After 72 h of differentiation, the medium is replaced with serum free growth medium, and CDK-inhibiting compounds as well as reference compounds such as positive and negative controls, each dissolved in DMSO are added at concentrations ranging from 0.5 to 5 μM (final concentration of DMSO in the well is 0.1%). Cells are incubated for 60 min with compounds prior to stimulation with 100 ng/ml LPS (Sigma, L2630) for another 4-48 hours. Supernatants are collected and assayed immediately for cytokine expression, e.g. for TNFα, IL-6 and IL-1b using commercially available sandwich ELISA assays (eBioscience, Cat. No 88-7346, 88-7066, 88-7010) or kept frozen at […] until evaluation.
Concentrations of TNFα, IL6 and IL1β within the cell culture supernatants are measured by using commercial ELISA Kits (eBioscience) according to the manufacturers instructions.
CDK-inhibitory compounds #1A, 16A, 20A, and 25A were administered to differentiated THP-1 cells in triplicates as described above (see section 2.). After 60 min of pre-incubation with test or reference compound (SB203580, a p38 inhibitor and BMS345541, an IKK-inhibitor) alone, cells were stimulated with LPS. After incubation for 4-48 h, supernatants were collected and ELISA based determinations of cytokine supernatant concentrations were performed as described in section 3, supra.

SNI mice = test: Spared nerve injury (SNI) model of chronic neuropathic pain, von Frey assay; type: in vivo, mice (strain C3HeB/FeJ); conditions: 30 mg/kg p.o., 30 min before measurement, day 107 post SNI, versus vehicle
Source text: As outlined above, the spared nerve injury (SNI) model (see FIG. 1) involves a lesion of two of the three terminal branches of the sciatic nerve (tibial and common peroneal nerves) of experimental animals, leaving the sural nerve intact. SNI results in mechanical and thermal allodynia in the non-injured sural nerve skin territory (Decosterd and Woolf, Pain 2000; 87:149-158. (2) Tsujino et al., Mol. Cel. Neurosci. 2000; 15:170-182).
Wildtype mice (strain C3HeB/FeJ) (age, sex and weight matched) were anesthetized with Hypnorm (0.315 mg/ml fentanyl citrate+10 mg/ml fluanisone; Janssen)/Hypnovel (5 mg/ml midazolam; Roche Applied Sciences)/water at a ratio of 1:1:2 at 4 μl/g prior to surgical preparation. […]
30 mg/kg of a CDK inhibitor, dissolved in 400 μl of 2% Hydroxprolylcellulose; 0.25% Lactic Acid (85% solution) was administered via per oral application 30 min prior to von Frey measurements (mechanical allodynia). […] Reflex nociceptive responses to mechanical stimulation were measured in a von Frey assay 30 min after each injection. […]
Mechanical thresholds of SNI mice were quantified using the up-down method based on Chaplan et al. (1994) and Malmberg and Basbaum (1998). […]

Row | SMILES | IL6 protein concentration in the blood serum (LPS induced mice) | TNFα protein concentration in the blood serum (LPS induced mice) | IL6 protein concentration in the cell supernatant [1] | TNFα protein concentration in the cell supernatant [1] | paw withdrawal threshold to mechanical stimulation (von Frey) (SNI mice)
1 | CCOc1ccccc1-c1cc(NC(=O)C2CCNCC2)ncn1 [Compound 1A, Piperidine-4-carboxylic acid [6-(2-ethoxy-phenyl)-pyrimidin-4-yl]-amide] | significant repressive effect | significant repressive effect | significant inhibitory effect | significant inhibitory effect | 
2 | COc1ccccc1-c1cc(NC(=O)C2CCCNC2)ncn1 (stereo not drawn) [Compound 16A, Piperidine-3-carboxylic acid [6-(2-methoxy-phenyl)-pyrimidin-4-yl]amide] | significant repressive effect | significant repressive effect | significant inhibitory effect | significant inhibitory effect | significant increase of threshold values
